For one data set, the system named is rats. As to the kind of experiment: Reversal of the effect of the mGluR2 PAM JNJ-42153605-induced inhibition of scopolamine-induced hyperlocomotion. Format: in vivo, rat. The settings on record: for ED50: Rattus norvegicus, read-out: ED50 SCOP JNJ-42153605 (Reversal of the effect of JNJ 42153605 on scopolamine-induced hyperlocomotion); for ED50 / ED50 SCOP JNJ-42153605 (Reversal of the effect of JNJ 42153605 on scopolamine-induced hyperlocomotion): rats, route PO, criterion total distance >1500 cm. The procedure: 2) Reversal of the Effect of the mGluR2 PAM JNJ-42153605-Induced Inhibition of Scopolamine-Induced Hyperlocomotion
Motor activity was measured in microprocessor-based motor activity arenas (closed gray PVC cylinders with a height of 39 cm and a diameter of 31 cm). Each arena was placed on an infrared LED (8×8 LEDs) lit box (white PVC squared box; 40×40 cm^2; height 12.5 cm. An infrared-sensitive tube camera and a white light source were mounted to the ceiling above the observation chamber to track the animal. The total distance traveled (cm) was recorded and analyzed using the Noldus Ethovision XT Video Tracking System (Version 7.0.418; Noldus, Wageningen, The Netherlands). The intensity of the light within the activity cages (measured in the centre at the level of the floor) ranged between 4 and 8 LUX.
The rats were pretreated with test compound or vehicle at 60 min before the start of the activity recordings and placed into individual cages. The rats were challenged with JNJ-42153605 (3-(cyclopropylmethyl)-7-(4-phenylpiperidin-1-yl)-8-(trifluoromethyl)[1,2,4]triazolo[4,3-a]pyridine; WO2010/130424; Cid et al. J. Med. Chem. 2012, 55, 8770-8789) (20 mg/kg, i.v.) 30 min before the start of the activity recording combined with scopolamine (0.16 mg/kg, i.v.) just before the start of the activity measurements. Immediately after the injection of scopolamine, the rats were placed into the activity monitors and total distance traveled over the first 30 min was measured.
For reversal of the inhibitory effect of JNJ-42153605 on the scopolamine-induced hyperlocomotion, the following all-or-none criteria were adopted: (1) reversal: total distance >1500 cm.

For the next data set, the target named is human mGlu2 receptor (Homo sapiens, UniProt Q14416). Briefly: [35S]GTPγS binding assay, mGluR2 negative allosteric modulation (membranes from CHO cells transfected with human mGlu2 receptor, glutamate ~EC80 60 μM).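 As to all read-outs here: membranes preincubated 30 min at 30 °C with compound plus glutamate, then [35S]GTPγS (0.1 nM) incorporation measured over another 30 min at 30 °C.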 The following applies: for IC50: GTPγS - hmGluR2 anGT pIC50, membranes with human mGlu2 receptor; for IC50 / GTPγS - hmGluR2 anGT pIC50: glutamate ~EC80 (60 μM), pIC50 = -log IC50 (M); for Emax: read-out: GTPγS - hmGluR2 anGT Emax, relative maximal effect: maximal % inhibition relative to the control glutamate response; for GTPγS - hmGluR2 anGT pIC50: membranes with human mGlu2 receptor; for GTPγS - hmGluR2 anGT Emax: relative maximal effect: maximal % inhibition relative to the control glutamate response.
Chain of human mGlu2 receptor (Q14416 19-872): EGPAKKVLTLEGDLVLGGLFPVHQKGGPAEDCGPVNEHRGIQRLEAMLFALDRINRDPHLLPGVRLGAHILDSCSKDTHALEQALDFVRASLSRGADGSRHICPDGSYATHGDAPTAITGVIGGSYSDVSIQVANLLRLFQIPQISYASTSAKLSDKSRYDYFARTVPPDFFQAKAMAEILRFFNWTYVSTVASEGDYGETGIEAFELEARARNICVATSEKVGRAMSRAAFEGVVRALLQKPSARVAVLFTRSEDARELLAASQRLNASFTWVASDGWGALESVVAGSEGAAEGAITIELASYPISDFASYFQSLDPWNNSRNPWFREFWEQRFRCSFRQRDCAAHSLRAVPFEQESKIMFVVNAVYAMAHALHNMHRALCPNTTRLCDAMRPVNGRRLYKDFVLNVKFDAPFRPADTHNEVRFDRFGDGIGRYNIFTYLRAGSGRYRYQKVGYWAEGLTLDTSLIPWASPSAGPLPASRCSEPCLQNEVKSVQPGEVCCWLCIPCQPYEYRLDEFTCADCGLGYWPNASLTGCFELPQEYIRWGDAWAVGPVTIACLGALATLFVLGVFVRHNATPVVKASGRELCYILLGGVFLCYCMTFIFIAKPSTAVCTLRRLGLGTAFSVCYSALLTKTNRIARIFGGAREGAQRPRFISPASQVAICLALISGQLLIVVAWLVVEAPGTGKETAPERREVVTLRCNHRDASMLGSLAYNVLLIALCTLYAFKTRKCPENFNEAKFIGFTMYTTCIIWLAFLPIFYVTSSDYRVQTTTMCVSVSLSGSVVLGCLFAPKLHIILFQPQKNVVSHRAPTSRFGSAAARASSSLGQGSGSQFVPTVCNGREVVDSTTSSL

Setting [1] is: historical solvent-pretreated control rats, first 30 min, JNJ-42153605 20 mg/kg i.v., scopolamine 0.16 mg/kg i.v.

Structures are written as SMILES.

The term ED50 denotes the dose at which the effect has come halfway, by size or by number of responders. Usually IC50 stands for the concentration that inhibits the measured activity by half. What is called Emax is the greatest response seen or fitted, relative to the assay's reference. What is called melting point is the temperature of the solid-liquid transition.

For the compound `COCc1cc(N2C[C@H](C)n3ncc(C(=O)Nc4ccnc(C)c4)c3C2=O)ccc1C(F)(F)F` [compound 95], in the data set on rats, the ED50 is over 2.5 mg/kg. On human mGlu2 receptor, the IC50 is 5.5e-09 M and the Emax amounted to 112%.

`COc1cccc(NC(=O)c2cnn3c2C(=O)N(c2ccc(C(F)(F)F)cc2)C[C@@H]3C)n1` [compound 105]: in the data set with rats, the “ED50 SCOP JNJ-42153605 (Reversal of the effect of JNJ 42153605 on scopolamine-induced hyperlocomotion)” value is given as over 2.5 mg/kg. On human mGlu2 receptor, the “GTPγS - hmGluR2 anGT pIC50” value stood at 8.21 and the “GTPγS - hmGluR2 anGT Emax” value was 108%.

Turning to `Cc1c(F)cncc1NC(=O)c1cnn2c1C(=O)N(c1ccc(C(F)(F)F)c(Cl)c1)C[C@@H]2C` [compound 133, (7S)-5-[3-chloro-4-(trifluoromethyl)phenyl]-N-(5-fluoro-4-methyl-3-pyridyl)-7-methyl-4-oxo-6,7-dihydropyrazolo[1,5-a]pyrazine-3-carboxamide], the melting point was 167.78 °C. Further, in the data set with rats, the ED50 is over 0.63 mg/kg. At human mGlu2 receptor, the half-inhibitory concentration (IC50) worked out at 9.12e-10 M and the Emax was found to be 105%.

With `Cc1cncc(NC(=O)c2cnn3c2C(=O)N(c2ccc(Cl)c(Cl)c2)C[C@@H]3C)c1` [compound 28], the “ED50 SCOP JNJ-42153605 (Reversal of the effect of JNJ 42153605 on scopolamine-induced hyperlocomotion)” value in the data set with rats is reported as over 0.63 mg/kg. At human mGlu2 receptor, the “GTPγS - hmGluR2 anGT pIC50” value is 9.06 and the “GTPγS - hmGluR2 anGT Emax” value came to 107%.

`Cc1cc(N2C[C@H](C)n3ncc(C(=O)Nc4cnccn4)c3C2=O)ccc1Cl` [compound 161] had a melting point of 233.4 °C. Besides, the median effective dose (ED50) in the data set with rats is over 0.63 mg/kg. Also, on human mGlu2 receptor, the IC50 was 2.82e-09 M and the maximal effect (Emax) was 108%.

For the compound `C[C@H]1CN(c2ccc(C(F)(F)F)cc2)C(=O)c2c(C(=O)Nc3ccc(N)nc3)cnn21` [compound 19], the melting point was 181.5 °C. Moreover, the median effective dose (ED50) with rats is 0.79 mg/kg. Further, at human mGlu2 receptor, the IC50 is 2.63e-09 M and the Emax is 104%.

As for `COCC1CN(c2ccc(C(F)(F)F)cc2)C(=O)c2c(C(=O)Nc3cnccn3)cnn21` (single isomer, unassigned) [compound 154], the “ED50 SCOP JNJ-42153605 (Reversal of the effect of JNJ 42153605 on scopolamine-induced hyperlocomotion)” value in the data set on rats turned out to be 0.63 mg/kg. At human mGlu2 receptor, the “GTPγS - hmGluR2 anGT pIC50” value worked out at 8.31 and the “GTPγS - hmGluR2 anGT Emax” value is recorded as 113%.

For `Cc1cc(NC(=O)c2cnn3c2C(=O)N(c2ccc(C(F)(F)F)c(C)c2)C[C@@H]3C)ccn1` [compound 86], the melting point worked out at 121.8 °C. Also, the ED50 in the data set with rats worked out at 1.26 mg/kg. On human mGlu2 receptor, the IC50 was 2.29e-09 M and the Emax worked out at 105%.

Turning to `Cc1cc(N2C[C@H](C)n3ncc(C(=O)Nc4ccc(F)cn4)c3C2=O)ccc1C(F)(F)F` [compound 110], the “ED50 SCOP JNJ-42153605 (Reversal of the effect of JNJ 42153605 on scopolamine-induced hyperlocomotion)” value in the data set with rats is reported as over 0.63 mg/kg. On human mGlu2 receptor, the “GTPγS - hmGluR2 anGT pIC50” value was determined as 8.3 and the “GTPγS - hmGluR2 anGT Emax” value amounted to 107%.

Regarding `C[C@H]1CN(c2ccc(C(F)(F)F)c(Cl)c2)C(=O)c2c(C(=O)Nc3cnccn3)cnn21` [compound 106], the ED50 with rats is 0.32 mg/kg. In addition, on human mGlu2 receptor, the IC50 was 1.15e-09 M and the Emax turned out to be 111%.

As for `CN1[C@@H]2C[C@@H](OC(=O)[C@H](CO)c3ccccc3)C[C@H]1[C@@H]1O[C@@H]12` [Scopolamine, scopolamine], in the data set with rats (setting [1]), the “Total distance traveled >1500 cm (%)” value is recorded as 100%; the “Total distance traveled >4400 cm (%)” value is on record as 95.8%; the “Total distance traveled, Median (cm)” value amounted to 7246 cm.

Regarding `C[C@H]1CN(c2ccc(C(F)(F)F)cc2)C(=O)c2c(C(=O)Nc3ccncc3)cnn21` [compound 3], the melting point came out at 160.2 °C. The ED50 with rats is 0.08 mg/kg. In addition, on human mGlu2 receptor, the IC50 was 2.09e-09 M and the maximal response (Emax) turned out to be 116%.

For `Cc1cc(N2C[C@H](C)n3ncc(C(=O)Nc4cnccn4)c3C2=O)ccc1C(F)(F)F` [compound 112], the ED50 with rats was determined as 0.2 mg/kg. In addition, on human mGlu2 receptor, the IC50 was 1.12e-09 M and the Emax came to 106%.

`COc1cncc(NC(=O)c2cnn3c2C(=O)N(c2ccc(Cl)c(Cl)c2)C[C@@H]3C)c1` [compound 29]: the “ED50 SCOP JNJ-42153605 (Reversal of the effect of JNJ 42153605 on scopolamine-induced hyperlocomotion)” value in the data set with rats is over 0.63 mg/kg. At human mGlu2 receptor, the “GTPγS - hmGluR2 anGT pIC50” value stood at 8.75 and the “GTPγS - hmGluR2 anGT Emax” value is 107%.

As to `C[C@H]1CN(c2ccc(C(F)(F)F)cc2)C(=O)c2c(C(=O)Nc3ccnc(CF)c3)cnn21` [compound 151], the melting point turned out to be 152.64 °C. In addition, the ED50 in the data set with rats is over 0.63 mg/kg. At human mGlu2 receptor, the IC50 was 2.69e-09 M and the Emax is 115%.

Regarding `COCC1CN(c2ccc(C(F)(F)F)cc2)C(=O)c2c(C(=O)Nc3cccnc3)cnn21` (single isomer, unassigned) [compound 158], the “ED50 SCOP JNJ-42153605 (Reversal of the effect of JNJ 42153605 on scopolamine-induced hyperlocomotion)” value in the data set with rats was over 0.63 mg/kg. Further, on human mGlu2 receptor, the “GTPγS - hmGluR2 anGT pIC50” value is on record as 8.48 and the “GTPγS - hmGluR2 anGT Emax” value came out at 108%.

Compound `Cc1cc(NC(=O)c2cnn3c2C(=O)N(c2ccc(C(F)(F)F)c(C)c2)C[C@@H]3C)cc(C)n1` [compound 111] came in with a melting point of 161.92 °C. The median effective dose (ED50) in the data set on rats worked out at 0.32 mg/kg. In addition, on human mGlu2 receptor, the IC50 was 1.45e-09 M and the Emax amounted to 109%.

As to `C[C@H]1CN(c2ccc(OC(F)(F)F)c(Cl)c2)C(=O)c2c(C(=O)Nc3cccnc3)cnn21` [compound 152], the melting point was found to be 145.36 °C. In addition, the ED50 in the data set with rats was found to be 0.08 mg/kg. At human mGlu2 receptor, the IC50 is 1.05e-09 M and the Emax was 108%.

Compound `Cc1cc(NC(=O)c2cnn3c2C(=O)N(c2ccc(C(F)(F)F)c(Cl)c2)C[C@@H]3C)on1` [compound 128] returned a melting point of 213.44 °C. Besides, at human mGlu2 receptor, the IC50 is 2.88e-09 M and the maximum response (Emax) amounted to 106%.

`C[C@H]1CN(c2ccc(C(F)(F)F)cc2)C(=O)c2c(C(=O)NC3CCCCC3)cnn21` [compound 65] had a melting point of 209.8 °C. Also, at human mGlu2 receptor, the IC50 is 1.78e-07 M and the Emax is 107%.

`COc1ccccc1NC(=O)c1cnn2c1C(=O)N(c1ccc(C(F)(F)F)c(OC)n1)C[C@@H]2C` [compound 122] returned a melting point of 192.95 °C. Moreover, at human mGlu2 receptor, the IC50 is 2.14e-08 M and the maximum response (Emax) came to 113%.

`COc1ccc(NC(=O)c2cnn3c2C(=O)N(c2ccc(C(F)(F)F)c(OC)n2)C[C@@H]3C)cc1` [compound 121] returned a melting point of 212.39 °C. Besides, at human mGlu2 receptor, the IC50 is 9.77e-09 M and the Emax amounted to 109%.

On to `CC(NC(=O)c1cnn2c1C(=O)N(c1ccc(C(F)(F)F)cc1)C[C@@H]2C)C1CC1` (single isomer, unassigned) [compound 61], for which the melting point turned out to be 186.7 °C. Also, on human mGlu2 receptor, the 50% inhibitory concentration (IC50) worked out at 7.08e-08 M and the Emax was 104%.

Turning to `COCC1CN(c2ccc(C(F)(F)F)c(Cl)c2)C(=O)c2c(C(=O)Nc3cccnc3)cnn21` (single isomer, unassigned) [compound 156], the “ED50 SCOP JNJ-42153605 (Reversal of the effect of JNJ 42153605 on scopolamine-induced hyperlocomotion)” value in the data set with rats was 0.20 mg/kg. In addition, on human mGlu2 receptor, the “GTPγS - hmGluR2 anGT pIC50” value is 8.77 and the “GTPγS - hmGluR2 anGT Emax” value is 107%.

On to `C[C@H]1CN(c2ccc(C(F)(F)F)cc2)C(=O)c2c(C(=O)NCC3CCCC3)cnn21` [compound 59], for which the melting point amounted to 159.8 °C. Further, on human mGlu2 receptor, the 50% inhibitory concentration (IC50) is 3.55e-08 M and the Emax amounted to 103%.

Consider `CC(=O)NC(=O)c1cnn2c1C(=O)N(c1ccc(C(F)(F)F)cc1)C[C@@H]2C` [compound 138], for which the melting point is 212.65 °C. For the same compound, on human mGlu2 receptor, the IC50 was 1.66e-07 M and the Emax was 114%.

For the origin of these results see patent US20200121677A1, “SUBSTITUTED 6,7-DIHYDROPYRAZOLO[1,5-a]PYRAZINES AS NEGATIVE ALLOSTERIC MODULATORS OF MGLUR2 RECEPTORS” (Janssen Pharmaceutica NV, priority 2014, published 2020).
